Reference: patent US20210267996A1, “Compounds for inhibition of inflammation” (Children`s Medical Center Corporation, priority 2018, published 2021)
Entries after “also recorded” stand apart in the source; their conditions may differ.

Experiments:
[1] = test system: THP-1 cells; test: Canonical inflammasome pyroptosis, LPS-primed THP-1 cells plus nigericin; assay type: cell-based, human; conditions: THP-1, nigericin
Method: Cell viability assay. […] Primed THP-1 cells were pretreated with each test compound for 1 hr before addition of 20 μM nigericin or medium as control. The number of surviving cells was determined by CellTiter-Glo assay 1.5 hrs later. The final percent cell viability was calculated using the formula [(luminescencetest compound−luminescencencenegative control)/(luminescencencepositive control−luminescencenegative control)]×100, where wells with only LPS were used as positive controls and wells treated with LPS and nigericin were used as negative controls.
Cells were verified to be free of mycoplasma contamination.
Cytotoxicity and cell viability assays: cell death and cell viability were determined by the lactate dehydrogenase release assay using the CytoTox 96 Non-Radioactive Cytotoxicity Assay kit (Promega) and by measuring ATP levels using the CellTiter-Glo Luminescent Cell Viability Assay (Promega), respectively, according to the manufacturer's instructions. Luminescence and absorbance were measured on a BioTek Synergy 2 plate reader.
In FIGS. 4, 6, and 8, PMA-differentiated LPS-primed human THP-1 were pre-treated with indicated concentrations of each compound for 1 h before adding nigericin or medium. The number of surviving cells was determined by CellTiter-Glo assay (FIGS. 4 and 6) and IL-1β in culture supernatants was assessed by ELISA (FIG. 8) 2 hrs later. […] In FIGS. 8 and 9, 40 μM concentration of test compounds were added. […] Graphs show the mean±s.d. and data shown are representative of three independent experiments. **P<0.01.

[2] = test system: ASC specks; test: ASC speck formation in LPS-primed THP-1 cells plus nigericin; assay type: cell-based, human; conditions: 30 μM, 1 hr before nigericin
Method: (§1) Immunostaining and confocal microscopy: cells grown on coverslips were fixed for 15 min with 4% paraformaldehyde in PBS, permeabilized for 5 min in 0.1% Triton X-100 in PBS and blocked using 5% BSA for 1 hr. Then, cells were stained with the indicated primary antibodies followed by incubation with fluorescent-conjugated secondary antibodies (Jackson ImmunoResearch). Nuclei were counterstained with DAPI (4,6-diamidino-2-phenylindole) (Sigma-Aldrich). Slides were mounted using Aqua-Poly/Mount (Dako). Images were captured using a laser scanning confocal microscope (Olympus Fluoview FV1000 Confocal System) with a 63× water immersion objective and Olympus Fluoview software (Olympus). All confocal images are representative of three independent experiments.
Nigericin activates the assembly of the NLRP3 canonical inflammasome using an adaptor called apoptosis-associated speck-like protein containing a caspase recruitment domain (ASC), which can be visualized in immunofluorescent microscopy as specks. When LPS-primed THP-1 cells were treated with nigericin in the absence of inhibitors, ASC specks were detected in 30% of cells (FIG. 36). As expected, speck formation was not inhibited by z-VAD-fmk, since caspase activation occurs downstream of inflammasome assembly.
(§2) Cell death was determined by CytoTox96 assay. […] Cell death was determined by CytoTox96 assay. […] Shown are immunoblots of whole cell lysates harvested 0.5 hr later. […] Representative images of ASC specks (arrowheads) and mean±s.d. percent of cells with ASC specks analyzed 20 min later (FIG. 47). Whole cell lysates (WCL) and culture supernatants (Sup) were harvested 30 min after adding nigericin and immunoblotted with the indicated antibodies (FIG. 50). Caspase-1 activity was assayed 30 min after adding nigericin using a cell-permeable fluorescence dye FAM-YVAD-FMK (FIG. 52). […] Representative images of ASC specks (arrowheads) and mean±s.d. percent of cells with ASC specks analyzed 20 min later (FIGS. 48 and 49). Whole cell lysates (WCL) and culture supernatants (Sup), harvested 30 min after adding nigericin, were analyzed by immunoblot (FIG. 51). […] The Figures show representative confocal microscopy images and quantification of proportion of cells with GSDMD membrane staining and pyroptotic bubbles. Arrows indicate GSDMD staining of pyroptotic bubbles. […] FIGS. 57 and 58, dose response curve of the effect of Bay 11-7082 on caspase-1 (FIG. 57) and caspase-11 (FIG. 58) activity against a fluorescent peptide substrate. […] (FIG. 60). FIGS. 61 and 62 show dose response curve of the effect of Bay 11-7082 on liposome leakage induced by 0.3 μM human GSDMD-3C (FIG. 61) or mouse GSDMA3-3C (FIG. 62) plus 0.15 μM 3C protease. […] 2-fold dilutions of Bay 11-7082 from 5-40 μM were used. Graphs show the mean±s.d; data are representative of three independent experiments. *P<0.05, **P<0.01.

[3] = test system: mouse iBMDMs; test: Processing of caspase-1, GSDMD and IL-1β in iBMDMs (immunoblot); assay type: cell-based; conditions: 1 hr time point
Method: FIG. 97 contains a bar graph showing results of an experiment where LPS-primed THP-1 cells, after medium removal, were incubated with probe FAM-YVAD-FMK in FLICA assay buffer for another 0.5 hr before fluorescence reading. iBMDMs were pretreated with disulfiram, Bay 11-7082, necrosulfonamide (NSA) or z-VAD-fmk for 1 hr before treated or not with Nigericin for 0.5 hr. Whole cell lysates and culture supernatants were immunoblotted with the indicated antibodies.
FIG. 98 contains a bar graph showing results of an experiment where LPS-primed THP-1 cells, after medium removal, were incubated with probe FAM-YVAD-FMK in FLICA assay buffer for another 0.5 hr before fluorescence reading. iBMDMs were pretreated with disulfiram, Bay 11-7082, necrosulfonamide (NSA) or z-VAD-fmk for 1 hr before treated or not with Nigericin for 1 hr. Whole cell lysates and culture supernatants were immunoblotted with the indicated antibodies.
Canonical inflammasome assembly activates caspase-1, which cleaves pro-IL-1β and GSDMD, and the latter is needed to release processed IL-1β and to induce pyroptosis. To assess which steps in NLRP3-mediated inflammation were inhibited post ASC speck formation, LPS-primed THP-1 cells were treated with vehicle, 30 μM z-VAD-fmk or disulfiram 1 hour before adding nigericin, and cleavage and activation of caspase-1, GSDMD, and pro-IL-1β were analysed by immunoblot of whole cell lysates 30 min later and 1 hr later. Secretion of processed IL-1β was also assessed by immunoblot of culture supernatants. […] The 1 hr time point is relevant as the cell death and IL-1β release measurements used cells stimulated with nigericin for 1 and 2 hrs, respectively.

[4] = test system: caspase-1; test: Caspase-1 activity assay in cells (FAM-YVAD-FMK); assay type: cell-based, human; conditions: 30 μM, 30 min after nigericin
Method: Caspase-1 activity assay in cells: to measure caspase-1 activation, THP-1 cells were seeded into 96-well plates and differentiated with PMA. After the indicated treatments, cells were incubated with a fluorescent active caspase-1 substrate FAM-YVAD-FMK (Immunochemistry Technologies). Samples were read on a BioTek Synergy 2 plate reader.
as §2

[5] = test system: GSDMD pore formation; test: GSDMD membrane staining and pyroptotic bubbles, immunofluorescence; assay type: cell-based, human; conditions: 30 μM, 30 min after nigericin
Method: as §1
To assess which steps in NLRP3-mediated inflammation were inhibited post ASC speck formation, LPS-primed THP-1 cells were treated with vehicle or 30 μM z-VAD-fmk, disulfiram or Bay 11-7082 1 hr before adding nigericin, and cleavage and activation of caspase-1, GSDMD, and pro-IL-1β were analysed by immunoblot of whole cell lysates 30 min later (FIG. 50). Secretion of processed IL-1β was also assessed by immunoblot of culture supernatants. […] Because immunoblots are not quantitative, caspase-1 activity 30 min after adding nigericin was also assessed using a fluorescent substrate in intact cells. […] Next, the effect of z-VAD-fmk, disulfiram and Bay 11-7082 on LPS+nigericin-induced GSDMD pore formation was assessed by immunofluorescence microscopy using a monoclonal antibody that was generated that recognizes both uncleaved GSDMD and its pore form (FIGS. 53, 54, and 64-66). […]
Cell death was determined by CytoTox96 assay. […] Cell death was determined by CytoTox96 assay. […] Representative images of ASC specks (arrowheads) and mean±s.d. percent of cells with ASC specks analyzed 20 min later (FIG. 47). […] Caspase-1 activity was assayed 30 min after adding nigericin using a cell-permeable fluorescence dye FAM-YVAD-FMK (FIG. 52). […]

[6] = test system: caspase-1, GSDMD, and pro-IL-1β; test: Caspase-1, GSDMD, pro-IL-1β cleavage and IL-1β secretion by immunoblot, THP-1; assay type: cell-based, human; conditions: 30 μM
Method: Immunoblot analysis: cell extracts were prepared using RIPA buffer (50 mM Tris-HCl pH 7.4, 150 mM NaCl, 1 mM EDTA, 1% Triton X-100, 0.1% SDS, 0.5% deoxycholate) supplemented with a complete protease inhibitor cocktail (Roche) and a PhosSTOP phosphatase inhibitor cocktail (Roche). Samples were subjected to SDS-PAGE and the resolved proteins were then transferred to a PVDF membrane (Millipore). Immunoblots were probed with indicated antibodies and visualized using a SuperSignal West Pico chemiluminescence ECL kit (Pierce).
To assess which steps in NLRP3-mediated inflammation were inhibited post ASC speck formation, LPS-primed THP-1 cells were treated with vehicle or 30 μM z-VAD-fmk, disulfiram or Bay 11-7082 1 hr before adding nigericin, and cleavage and activation of caspase-1, GSDMD, and pro-IL-1β were analysed by immunoblot of whole cell lysates 30 min later (FIG. 50). Secretion of processed IL-1β was also assessed by immunoblot of culture supernatants. […] Because immunoblots are not quantitative, caspase-1 activity 30 min after adding nigericin was also assessed using a fluorescent substrate in intact cells. […] Next, the effect of z-VAD-fmk, disulfiram and Bay 11-7082 on LPS+nigericin-induced GSDMD pore formation was assessed by immunofluorescence microscopy using a monoclonal antibody that was generated that recognizes both uncleaved GSDMD and its pore form (FIGS. 53, 54, and 64-66). In the absence of any inhibitor, the GSDMD antibody stained both the cytosol and the plasma membrane of LPS plus nigericin treated cells, which formed characteristic pyroptotic bubbles (See Reference 10). […] Thus, disulfiram and Bay 11-7082 inhibit multiple steps leading to canonical inflammasome-induced pyroptosis and inflammatory cytokine release, including priming, inflammasome assembly, inflammatory caspase activation, pro-inflammatory cytokine processing and GSDMD pore formation.
as §2
Canonical inflammasome assembly activates caspase-1, which cleaves pro-IL-1β and GSDMD, and the latter is needed to release processed IL-1β and to induce pyroptosis. […]

Structure (SMILES): COC(=O)C[C@@H](C(=O)CF)N(C(=O)[C@@H](NC(=O)OCc1ccccc1)C(C)C)[C@@H](C)C(N)=O [z-VAD-fmk]
- inhibition of canonical inflammasome pyroptosis [1]: inhibits the canonical inflammasome pathway
- ASC speck formation [2]: not inhibited
- processing of caspase-1, GSDMD and IL-1β [3]: still inhibited processing
- caspase-1 activity in intact cells [4]: completely inhibited
- GSDMD membrane staining and pyroptotic bubbles [5]: completely blocked
- processed IL-1β in culture supernatants [6]: only detected in the culture supernatants in the absence of any inhibitor; also recorded: only detected in culture supernatants in the absence of either inhibitor
- caspase-1, GSDMD and pro-IL-1β cleavage ([6]; 30 min after nigericin): dramatically reduced; also recorded: processing was reduced
- processing of caspase-1, GSDMD and pro-IL-1β ([6]; 60 min after nigericin): still showed little cleavage
